Assay results from publication PMC3048735 (The Journal of Biological Chemistry, 2011).

Biological target: T1, TryP (TbTryP) (Trypanosoma brucei, UniProt Q71RY2)
T1 sequence (Q71RY2 1-199): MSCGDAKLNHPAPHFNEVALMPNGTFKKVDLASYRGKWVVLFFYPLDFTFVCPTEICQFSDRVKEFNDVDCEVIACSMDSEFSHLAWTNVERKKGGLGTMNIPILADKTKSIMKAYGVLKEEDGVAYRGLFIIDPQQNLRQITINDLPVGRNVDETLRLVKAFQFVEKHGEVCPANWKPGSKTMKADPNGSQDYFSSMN
Experiment: TryP-limited coupled peroxidase assay, NADPH consumption at […] nm
Type: biochemical

Compound: O=C1C=CC(O)(c2nc3ccccc3s2)C=C1 [compound 1, PMX464]
- IC50: 14.1 ± 0.8 µM
